Key:
[1] = molecular target: T1, ErbB3(667-1053) protein (Her3) (Homo sapiens, UniProt P21860); assay: LanthaScreen Eu kinase binding assay (Her3 ATP-site binding); conditions: binding to the ATP-site of Her3
T1 construct: Purified ErbB3(667-1053) protein was obtained from Invitrogen; purchased Invitrogen
T1 sequence (P21860 667-1053): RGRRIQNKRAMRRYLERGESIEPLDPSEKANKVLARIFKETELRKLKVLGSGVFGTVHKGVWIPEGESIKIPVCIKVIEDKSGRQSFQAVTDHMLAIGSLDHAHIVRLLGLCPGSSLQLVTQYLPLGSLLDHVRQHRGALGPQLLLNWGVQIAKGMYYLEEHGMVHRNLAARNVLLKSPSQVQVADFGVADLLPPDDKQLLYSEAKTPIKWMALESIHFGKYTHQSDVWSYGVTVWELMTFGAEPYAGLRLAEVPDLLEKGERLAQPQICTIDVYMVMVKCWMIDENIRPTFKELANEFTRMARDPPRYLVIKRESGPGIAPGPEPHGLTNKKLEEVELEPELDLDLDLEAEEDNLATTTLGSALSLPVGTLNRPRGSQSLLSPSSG
Experimental: To discover chemical starting points for developing Her3 inhibitors, the inventors screened a library of 1,500 kinase-directed compounds using the LanthaScreen™ Eu methodology for compounds that could bind to the ATP-site of Her3. […] See, e.g., Stachlewitz et al., J Pharmacol Exp Ther. (2005) 315:36-41.
FIG. 2 depicts binding affinity data for exemplary compounds of Formula (II). Binding affinity (IC50) was measured by Invitrogen LanthaScreen™ Eu kinase binding assay which is based on the binding and displacement of Alexa Fluor 647 labeled ATP-competitive kinase inhibitor scaffold (Kinase Tracer 178). Binding of the tracer to the kinase is detected using a europium-labeled anti-tag antibody (anti-GST). The binding of both the tracer and antibody to the kinase results in a high degree of FRET (fluorescenece resonance energy transfer) from the europium donor fluorophore to the Alexa Fluor 647 acceptor fluoropore on the kinase tracer. […] This centrifugation step will eliminate spurious data points that can arise on occasion due to any particulates in the product. • (3) Add 5 ul the mixture of ErbB3 protein and Eu-anti-GST to 5 ul test compound solution per well in coming 384 plates. • (4) Add 5 ul tracer 178 at concentration of 39 nM per well. • (5) Incubate for 3 hours at 4° C. and read plate with Perkin Elmer EnVision. […]

[2] = tested on: downstream effectors of Her3, such as Erk and Akt; assay: Phosphorylation of downstream effectors of Her3 (Erk, Akt) in cells; format: cell-based; conditions: TX2-62-1 formed inside the cell from TX2-49-1 and TX2-57-1 via oxime formation
Experimental: (§1) Without wishing to be bound by any particular theory, the inventors hypothesize that this lack of inhibition is the result of poor cell penetration of TX2-62-1 due to its high molecular weight (MW=828.5). The inventors tested this hypothesis by designing a strategy whereby the two halves of TX2-62-1 (TX2-49-1 and TX2-57-1) were brought together inside of a cell via oxime formation. See Scheme 1 below.
(§2) PC9 Gefitinib Resistant 4 (GR4) cells were cultured in 60 mm plate with 10% fetal bovine serum (FBS), Roswell Park Memorial Institute medium (RPMI) medium. When the confluence reached 80%, cells were treated with compounds in indicated concentration. After 4 hours, wash cells with medium for three times. Cells were cultured for another 4 hours, followed by 3 times PBS washes. Cells were lysed with lysis buffer (25 mM Tris-HCl pH 7.4, 150 mM NaCl, 1 mM EDTA, 1% NP-40, 5% glycerol, Roche PhosSTOP phosphatase inhibitor cocktail tablets and Roche Complete Protease inhibitor cocktail tablets). […]
(§3) With the spectrophotometer set to 562 nm, zero the instrument on a cuvette filled only with water. Subsequently, measure the absorbance of all the samples with 10 minutes. Subtract the average 562 nm absorbance measurement of the Blank standard replicates from the 562 nm absorbance measurement of all other individual standard and unknown sample replicates. […]

Her3 = molecular target: T2, Her3 (Homo sapiens, UniProt P21860); assay: Her3 protein degradation in cells; format: cell-based
T2 construct: endogenous in cells; host or cells: PC9 GR4
Experimental: as §1, §2, §3

Her3-addicted cells = assay: Her3-dependent growth / viability of Her3-addicted cells; format: cell-based
Excerpt: as §1
FIG. 3 depicts anti-proliferation data for exemplary compounds of Formula (II). The anti-proliferation assay was carried out by using 96 well white bottom plates. 2000-4000 cells were seeded per well, and the medium volume per well was about 100 ul. Incubate for 3 days after adding and titrating indicated concentration of compounds. The cell viability was test by CellTiter-Glo® Luminescent Assay. In a typical experiment, add 10 ul CellTiter-Glo® reagent per well. Mix and shake the plate for 2 minutes to induce cell lysis at room temperature. Allow the plate to incubate at room temperature for approximately 10 minutes to stabilize luminescent signal. Read plate with Perkin Elmer EnVision. The cell numbers were normalized by the DMSO control. And the EC50s were calculated by GraphPad Prism.

[3] = TX2-62-1 formed inside the cell from TX2-49-1 and TX2-57-1 via oxime formation

T2 sequence (P21860 20-1342): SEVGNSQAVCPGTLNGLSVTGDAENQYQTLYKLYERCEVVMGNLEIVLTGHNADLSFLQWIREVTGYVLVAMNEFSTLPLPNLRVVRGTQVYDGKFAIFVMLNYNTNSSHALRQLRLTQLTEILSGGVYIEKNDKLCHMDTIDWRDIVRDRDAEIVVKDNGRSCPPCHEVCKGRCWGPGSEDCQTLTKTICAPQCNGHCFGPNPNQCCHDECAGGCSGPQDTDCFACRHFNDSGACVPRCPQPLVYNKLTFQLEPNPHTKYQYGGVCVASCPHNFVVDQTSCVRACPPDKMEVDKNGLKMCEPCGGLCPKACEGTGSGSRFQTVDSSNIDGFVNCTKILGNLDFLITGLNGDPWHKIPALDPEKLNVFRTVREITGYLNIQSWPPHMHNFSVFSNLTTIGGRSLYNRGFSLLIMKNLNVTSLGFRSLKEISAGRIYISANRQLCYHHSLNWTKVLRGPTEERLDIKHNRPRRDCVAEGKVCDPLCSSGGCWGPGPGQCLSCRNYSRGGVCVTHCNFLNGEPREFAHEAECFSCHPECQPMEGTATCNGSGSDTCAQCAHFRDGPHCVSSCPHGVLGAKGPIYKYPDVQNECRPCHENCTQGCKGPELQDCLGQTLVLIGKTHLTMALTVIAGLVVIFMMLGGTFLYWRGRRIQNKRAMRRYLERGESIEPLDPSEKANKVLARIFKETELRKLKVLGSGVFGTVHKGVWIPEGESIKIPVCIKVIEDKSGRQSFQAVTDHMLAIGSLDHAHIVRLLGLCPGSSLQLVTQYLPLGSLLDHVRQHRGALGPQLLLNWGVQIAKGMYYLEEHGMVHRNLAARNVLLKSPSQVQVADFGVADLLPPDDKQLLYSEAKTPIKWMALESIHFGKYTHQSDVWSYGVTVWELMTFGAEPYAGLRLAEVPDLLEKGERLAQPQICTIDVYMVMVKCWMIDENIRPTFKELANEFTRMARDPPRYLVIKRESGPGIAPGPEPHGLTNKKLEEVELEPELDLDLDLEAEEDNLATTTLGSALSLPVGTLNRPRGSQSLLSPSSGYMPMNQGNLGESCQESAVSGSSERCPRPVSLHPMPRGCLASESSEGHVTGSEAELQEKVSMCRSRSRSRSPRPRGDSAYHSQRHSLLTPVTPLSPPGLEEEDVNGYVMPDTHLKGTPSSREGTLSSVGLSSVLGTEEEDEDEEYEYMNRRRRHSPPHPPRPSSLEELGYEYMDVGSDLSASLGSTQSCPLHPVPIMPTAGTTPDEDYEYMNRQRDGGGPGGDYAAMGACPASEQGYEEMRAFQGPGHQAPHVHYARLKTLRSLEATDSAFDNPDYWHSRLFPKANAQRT

Compound | Her3 binding [1] | inhibition of Her3-dependent signaling [2] | degradation of Her3 (Her3; [3]) | Her3 protein level after washout (Her3; after TX2-62-1 was washed out) | viability of Her3-addicted cells (Her3-addicted cells; [3]) | cell proliferation after washout (Her3-addicted cells; after TX2-62-1 was washed out) | inhibition of Her3-dependent growth (Her3-addicted cells; compound added as preformed molecule)
COc1cc(-c2nn(C3CCC(N4CCN(C(C)=O)CC4)CC3)c3ncnc(N)c23)ccc1NC(=O)c1cc2ccccc2n1C (centres unmarked) [KIN001-111, reference compound] | most potent Her3 binder |  |  |  |  |  | 
C=CC(=O)Nc1cc(-c2nn(C3CCC(N4CCN(C/C(C)=N/OCCNC(=O)CC5C6CC7CC(C6)CC5C7)CC4)CC3)c3ncnc(N)c23)ccc1Oc1ccccc1 (centres unmarked) [TX2-62-1] | maintained potent and covalent Her3 binding ability | inhibition of Her3-dependent signaling | efficient degradation of Her3 | Her3 protein was resynthesized | loss of viability of Her3-addicted cells | cell proliferation resumed | did not inhibit Her3-dependent growth

Reference: USRE48175E1, “Hydrophobically tagged small molecules as inducers of protein degradation” (Dana-Farber Cancer Institute, Inc., priority 2012, dated 2020)
